Source: the supplement of paper PMC5908809

Columns and labels:
[1] = tested on: DERL-7 (IL-2 2.5 ng/mL); test: drug sensitivity score (DSS) (DSS units); higher = more sensitive; extreme values may be limits of the assay; details: 72 h
[2] = tested on: normal primary NK cells, pool 1 (3 donors) (IL-2 2.5 ng/mL); test: as above; details: 72 h
[3] = tested on: YT (IL-2 2.5 ng/mL); test: as above; details: 72 h
[4] = tested on: KAI3 (IL-2 2.5 ng/mL); test: as above; details: 72 h
[5] = tested on: NKL (IL-2 2.5 ng/mL); test: as above; details: 72 h
[6] = tested on: KHYG-1 (IL-2 2.5 ng/mL); test: as above; details: 72 h
[7] = tested on: normal primary NK cells, pool 1 (3 donors), resting (IL-2 0 ng/mL); test: as above; details: 72 h
[8] = tested on: SNK-6 (IL-2 2.5 ng/mL); test: as above; details: 72 h
[9] = tested on: NK-92 (IL-2 2.5 ng/mL); test: as above; details: 72 h
[10] = tested on: NK-YS (IL-2 2.5 ng/mL); test: as above; details: 72 h
[11] = tested on: DERL-7 (IL-2 2.5 ng/mL); test: percent inhibition of viability; higher = more inhibition; details: 72 h
[12] = tested on: normal primary NK cells, pool 1 (3 donors) (IL-2 2.5 ng/mL); test: as above; details: 72 h
[13] = tested on: YT (IL-2 2.5 ng/mL); test: as above; details: 72 h
[14] = tested on: KAI3 (IL-2 2.5 ng/mL); test: as above; details: 72 h
[15] = tested on: NKL (IL-2 2.5 ng/mL); test: as above; details: 72 h
[16] = tested on: KHYG-1 (IL-2 2.5 ng/mL); test: as above; details: 72 h
[17] = tested on: normal primary NK cells, pool 1 (3 donors), resting (IL-2 0 ng/mL); test: as above; details: 72 h
[18] = tested on: SNK-6 (IL-2 2.5 ng/mL); test: as above; details: 72 h
[19] = tested on: NK-92 (IL-2 2.5 ng/mL); test: as above; details: 72 h
[20] = tested on: NK-YS (IL-2 2.5 ng/mL); test: as above; details: 72 h
[21] = tested on: normal NK cells expanded with K562-aAPC; test: as above; details: 72 h, IL-2 2.5 ng/mL
Protocol: (§1)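 Drug sensitivity and resistance testing on K562-aAPC-expanded normal NK cells: 5 concentrations (10-fold steps over a 10,000-fold range), 72 h at 37 °C, viability by CellTiter-Glo normalised to DMSO and benzethonium chloride controls; DSS from the fitted curve.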

[22] = tested on: normal NK cells expanded with K562-aAPC; test: drug sensitivity score (DSS) (DSS units); higher = more sensitive; extreme values may be limits of the assay; details: 72 h; IL-2 2.5 ng/mL
Protocol: as §1

[23] = tested on: IMC-1 (IL-2 20 ng/mL); test: as above; details: 72 h
[24] = tested on: normal primary NK cells, pool 2 (3 donors) (IL-2 2.5 ng/mL); test: as above; details: 72 h
[25] = tested on: normal primary NK cells, pool 3 (3 donors) (IL-2 2.5 ng/mL); test: as above; details: 72 h
[26] = tested on: IMC-1 (IL-2 20 ng/mL); test: percent inhibition of viability; higher = more inhibition; details: 72 h
[27] = tested on: normal primary NK cells, pool 2 (3 donors) (IL-2 2.5 ng/mL); test: as above; details: 72 h
[28] = tested on: normal primary NK cells, pool 3 (3 donors) (IL-2 2.5 ng/mL); test: as above; details: 72 h

CC1(C)CCC(CN2CCN(c3ccc(C(=O)NS(=O)(=O)c4ccc(NCC5CCOCC5)c([N+](=O)[O-])c4)c(Oc4cnc5[nH]ccc5c4)c3)CC2)=C(c2ccc(Cl)cc2)C1 [Venetoclax] (max concentration tested 10000 nM)
Details	drug sensitivity score
[1]	16.2
[2]	8.04
[3]	14.1
[4]	33.6
[5]	18.4
[6]	8.64
[7]	34.5
[8]	26.1
[9]	5.65
[10]	7.95

percent inhibition of viability [%]
Details	[11]	[12]	[13]	[14]	[15]	[16]	[17]	[18]	[19]	[20]
1 nM	1.21	-1.92	3.82	27.7	5.96	-4.77	-13.2	10.4	-4.75	4.6
10 nM	17	-1.34	7.84	55.8	19.3	-0.91	53.6	48.6	2.95	3.22
100 nM	36.3	4.44	10.9	71	45.6	1.35	87.3	50.4	18.2	6.71
1000 nM	54.6	36.7	67.4	91.3	55.5	29.1	91.6	74.7	17	25.8
10000 nM	87.8	67.1	88.4	98.7	85.8	82.5	91.2	96.6	66.6	82.6

O=C(O)C(=O)O.[NH-][C@@H]1CCCC[C@H]1[NH-].[Pt+2] [Oxaliplatin] (max concentration tested 100000 nM)
percent inhibition of viability [%]
Details	10 nM	100 nM	1000 nM	10000 nM	100000 nM
[21]	0.69	4.04	21.3	86.9	101
[26]	-0.91	5.5	6.16	51.1	101
[27]	-2.45	-3.26	15.2	44.2	93.1
[28]	-8.94	-0.68	20.4	44	97.6

Details	drug sensitivity score
[22]	18.5
[23]	11.6
[24]	10.7
[25]	11.3

Oc1ncc(N(CCCl)CCCl)c(O)n1 [Uracil mustard] (max concentration tested 10000 nM)
Details	drug sensitivity score
[1]	0
[2]	0
[3]	0
[4]	1.5
[5]	0.45
[6]	0
[7]	1.83
[8]	0
[9]	1.65
[10]	1.03

percent inhibition of viability [%]
Details	[11]	[12]	[13]	[14]	[15]	[16]	[17]	[18]	[19]	[20]
1 nM	-3.55	1.1	-3.44	-2.41	-13	-4.85	1.93	-5.93	-13	-4.38
10 nM	-2.92	14.8	-2.84	-4.28	-8.44	-7.99	12.8	-12.3	2.85	-2.31
100 nM	0.29	6.41	-1.58	4.07	1.52	-5.32	14.2	-16.6	-5.3	-0.87
1000 nM	1.68	7.51	6.78	10.1	7.38	0.5	7.77	-20.1	11.1	8.35
10000 nM	-8.73	12.4	8.3	23.1	14.1	6.88	16.2	-11.1	19.6	16.4

CC(=O)N(O)CCCCCNC(=O)CCC(=O)N(O)CCCCCNC(=O)CCC(=O)N(O)CCCCCN [Deferoxamine] (max concentration tested 10000 nM)
percent inhibition of viability [%]
Details	1 nM	10 nM	100 nM	1000 nM	10000 nM
[21]	-3.82	-8.67	-5.64	22.8	86.1
[26]	-6.25	-3.2	-4.14	-0.7	97.2
[27]	-2.8	5.46	3.49	11.1	42.7
[28]	-1.79	6.03	10.4	16.1	53.2

Details	drug sensitivity score
[22]	8.23
[23]	5.37
[24]	3.84
[25]	4.59

CC1(C)CCC(CN2CCN(c3ccc(C(=O)NS(=O)(=O)c4ccc(NCC5CCOCC5)c([N+](=O)[O-])c4)c(Oc4cnc5[nH]ccc5c4)c3)CC2)=C(c2ccc(Cl)cc2)C1 [Venetoclax] (max concentration tested 1000 nM)
percent inhibition of viability [%]
Details	0.1 nM	1 nM	10 nM	100 nM	1000 nM
[21]	3.87	-7.3	-4.26	-4.09	18.9
[26]	-3.1	2.12	-1.24	-0.5	5.01
[27]	-15.6	-3.12	0.73	7.62	31.3
[28]	-10.2	-7.52	-5.3	1.76	14.7

Details	drug sensitivity score
[22]	0.35
[23]	0
[24]	2.56
[25]	0.37
